Assay results from PubChem BioAssay AID328 (DTP/NCI, 2004).
“And” between values parts separate entries of the source, which are not always exact repeats. Identical values can stand only once. Toxic doses and inconclusive results are not listed.

Test system: BDF1 mice, P388 leukemia ip, median survival T/C
Experiment: NCI In Vivo Anticancer Drug Screen. Data for tumor model P388 Leukemia (intraperitoneal) in B6D2F1 (BDF1) mice
Settings: endpoint: median survival time, higher = longer survival
Outline: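 Vehicle-dosed animals serve as the reference; survival of compound-dosed, tumour-implanted mice is divided by it.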

[1] = dose: 100.0 mg/kg/injection, schedule: Q04DX003 (ip), vehicle: saline with Tween-80
[2] = dose: 200.0 mg/kg/injection, schedule: Q04DX003 (ip), vehicle: saline with Tween-80
[3] = dose: 400.0 mg/kg/injection, schedule: Q04DX003 (ip), vehicle: saline with Tween-80
[4] = dose: 100.0 mg/kg/injection, schedule: Q01DX009 (ip), vehicle: saline with Tween-80
[5] = dose: 200.0 mg/kg/injection, schedule: Q01DX009 (ip), vehicle: saline with Tween-80
[6] = dose: 100.0 mg/kg/injection, schedule: Q01DX009 (ip), vehicle: Klucel (hydroxypropylcellulose) (HPC)
[7] = dose: 200.0 mg/kg/injection, schedule: Q01DX009 (ip), vehicle: Klucel (hydroxypropylcellulose) (HPC)

`Cc1ncc([N+](=O)[O-])n1CCSSCCn1c([N+](=O)[O-])cnc1C` was tested, and the T/C [1] was 118 % of control, the T/C [2] was 118 % of control and the T/C [3] was 115 % of control.

`C=[CH][Sn]([CH]=C)([CH]=C)[O]C(C)=O` was tested, and the T/C (dose: 1.56 mg/kg/injection, schedule: Q01DX009 (ip), vehicle: Klucel (hydroxypropylcellulose) (HPC)) was 101 % of control, the T/C (dose: 1.56 mg/kg/injection, schedule: Q04DX003 (ip), vehicle: Klucel (hydroxypropylcellulose) (HPC)) was 91 % of control and the T/C (dose: 3.12 mg/kg/injection, schedule: Q01DX009 (ip), vehicle: Klucel (hydroxypropylcellulose) (HPC)) was 101 % of control and 109 % of control. The T/C (dose: 3.12 mg/kg/injection, schedule: Q04DX003 (ip), vehicle: Klucel (hydroxypropylcellulose) (HPC)) was 92 % of control, the T/C (dose: 6.25 mg/kg/injection, schedule: Q01DX009 (ip), vehicle: Klucel (hydroxypropylcellulose) (HPC)) was 110 % of control and 117 % of control and the T/C (dose: 6.25 mg/kg/injection, schedule: Q04DX003 (ip), vehicle: Klucel (hydroxypropylcellulose) (HPC)) was 94 % of control and 101 % of control. The T/C (dose: 12.5 mg/kg/injection, schedule: Q01DX009 (ip), vehicle: Klucel (hydroxypropylcellulose) (HPC)) was 153 % of control and 160 % of control, the T/C (dose: 12.5 mg/kg/injection, schedule: Q01DX009 (ip), vehicle: saline) was 153 % of control and 162 % of control and the T/C (dose: 12.5 mg/kg/injection, schedule: Q04DX003 (ip), vehicle: Klucel (hydroxypropylcellulose) (HPC)) was 104 % of control and 106 % of control. The T/C (dose: 25.0 mg/kg/injection, schedule: Q01DX009 (ip), vehicle: saline) was 86 % of control.

With `COC(C(OC)N1CCOCC1)N1CCOCC1` (stereo not drawn) the T/C (dose: 50.0 mg/kg/injection, schedule: Q04DX003 (ip), vehicle: saline with Tween-80) was 104 % of control, the T/C [4] was 91 % of control and the T/C [1] was 95 % of control. The T/C [5] was 95 % of control, the T/C [2] was 100 % of control and the T/C (dose: 400.0 mg/kg/injection, schedule: Q01DX009 (ip), vehicle: saline with Tween-80) was 95 % of control. For the same compound, the T/C [3] was 100 % of control.

With `COc1ccc(/C=C2\CCC3C(CCCC34OCCO4)C2=O)cc1` (stereo not drawn) the T/C (dose: 45.0 mg/kg/injection, schedule: Q01DX009 (ip), vehicle: Klucel (hydroxypropylcellulose) (HPC)) was 104 % of control, the T/C (dose: 50.0 mg/kg/injection, schedule: Q01DX009 (ip), vehicle: saline with Tween-80) was 100 % of control and the T/C (dose: 65.0 mg/kg/injection, schedule: Q01DX009 (ip), vehicle: Klucel (hydroxypropylcellulose) (HPC)) was 95 % of control. The T/C [6] was 118 % of control, the T/C [4] was 104 % of control and the T/C (dose: 100.0 mg/kg/injection, schedule: Q04DX003 (ip), vehicle: other) was 91 % of control. For the same compound, the T/C (dose: 150.0 mg/kg/injection, schedule: Q01DX009 (ip), vehicle: Klucel (hydroxypropylcellulose) (HPC)) was 90 % of control, the T/C [7] was 100 % of control and the T/C [5] was 96 % of control. The T/C (dose: 200.0 mg/kg/injection, schedule: Q04DX003 (ip), vehicle: other) was 108 % of control, the T/C (dose: 400.0 mg/kg/injection, schedule: Q01DX009 (ip), vehicle: Klucel (hydroxypropylcellulose) (HPC)) was 95 % of control and the T/C (dose: 400.0 mg/kg/injection, schedule: Q04DX003 (ip), vehicle: other) was 95 % of control.

For `CC(C)NC(=O)OCc1c(COC(=O)NC(C)C)c(-c2ccc(Cl)c(Cl)c2)n2c1CCC2`, the T/C (dose: 12.5 mg/kg/injection, schedule: Q01DX009 (ip), vehicle: other) was 204 % of control and the T/C (dose: 25.0 mg/kg/injection, schedule: Q01DX009 (ip), vehicle: other) was 214 % of control.

`CC1=CC(=O)C2=C(C)CCC3C(C)C(=O)OC3C12` (stereo not drawn) was tested, and the T/C [1] was 100 % of control, the T/C [2] was 111 % of control and the T/C [3] was 116 % of control.

In the case of `C#CCOC(=O)NCCC`, the T/C (dose: 50.0 mg/kg/injection, schedule: Q01DX009 (ip), vehicle: Klucel (hydroxypropylcellulose) (HPC)) is reported as 110 % of control, the T/C (dose: 50.0 mg/kg/injection, schedule: Q04DX003 (ip), vehicle: Klucel (hydroxypropylcellulose) (HPC)) is reported as 95 % of control and the T/C [6] is reported as 105 % of control. For the same compound, the T/C (dose: 100.0 mg/kg/injection, schedule: Q04DX003 (ip), vehicle: Klucel (hydroxypropylcellulose) (HPC)) was 104 % of control, the T/C [7] was 115 % of control and the T/C (dose: 200.0 mg/kg/injection, schedule: Q04DX003 (ip), vehicle: Klucel (hydroxypropylcellulose) (HPC)) was 104 % of control.
